Laboratory results as given in the supplement of paper PMC9663587.

Key:
PDX1206 = assay: area over the GR curve, 72 h; higher = more effect;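 further: Dye Drop or Deep Dye Drop imaging of viable cells in 384-well plates (Hoechst nuclei, LIVE/DEAD dye), nine half-log doses, GR normalized to DMSO controls and time-zero plates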
MCF10A (GM) = assay: area over the GR curve, 72 h; higher = more effect;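 further: Dye Drop or Deep Dye Drop imaging of viable cells in 384-well plates (Hoechst nuclei, LIVE/DEAD dye), nine half-log doses, GR normalized to DMSO controls and time-zero plates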
HCC1954 = assay: GRmax, 72 h; higher = less effect;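 further: breast cell lines in 384-well plates, nine doses across a 10^4 range, Dye Drop imaging of viable cells vs DMSO and time-zero plates, GR 0 means no net growth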
MCF10A = assay: GRmax, 72 h; higher = less effect;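 further: breast cell lines in 384-well plates, nine doses across a 10^4 range, Dye Drop imaging of viable cells vs DMSO and time-zero plates, GR 0 means no net growth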
CAMA1 = assay: GRmax, 72 h; higher = less effect;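 further: breast cell lines in 384-well plates, nine doses across a 10^4 range, Dye Drop imaging of viable cells vs DMSO and time-zero plates, GR 0 means no net growth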
BT549 = assay: GRmax, 72 h; higher = less effect;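 further: breast cell lines in 384-well plates, nine doses across a 10^4 range, Dye Drop imaging of viable cells vs DMSO and time-zero plates, GR 0 means no net growth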
HCC1419 = assay: GRmax, 72 h; higher = less effect
MDAMB415 = assay: GRmax, 72 h; higher = less effect

| Structure (SMILES) | area over the GR curve (PDX1206) | area over the GR curve (MCF10A (GM)) | GRmax, 72 h (HCC1954) | GRmax, 72 h (MCF10A) | GRmax, 72 h (CAMA1) | GRmax, 72 h (BT549) | GRmax, 72 h (HCC1419) | GRmax, 72 h (MDAMB415) |
| --- | --- | --- | --- | --- | --- | --- | --- | --- |
| CN(C)C(=O)c1cc2cnc(Nc3ccc(N4CCNCC4)cn3)nc2n1C1CCCC1 [LEE011/Ribociclib] (max 10 µM) | 0.166 GR | 0.166 GR | 0.543 GR | 0.434 GR | 0.122 GR | 0.97 GR | 0.547 GR | 0.231 GR |
| CN(C)C/C=C/C(=O)Nc1ccc(C(=O)N2CCC[C@@H](Nc3ncc(Cl)c(-c4c[nH]c5ccccc45)n3)C2)cc1 [THZ531] (max 1 µM) | 0.407 GR | 0.134 GR | -0.303 GR | -0.625 GR | -0.398 GR | -0.349 GR | -0.294 GR | -0.344 GR |
| CN(C)C/C=C/C(=O)Nc1ccc(O[C@@H]2CCC[C@@H](Nc3ncc(Cl)c(-c4c[nH]c5ccccc45)n3)C2)cc1 [BSJ-01-175] (max 10 µM) | 0.9 GR | 0.326 GR | -0.652 GR | -0.566 GR | -0.712 GR | -0.593 GR | -0.601 GR | -0.491 GR |
| C=CCn1c(=O)c2cnc(Nc3ccc(N4CCN(C)CC4)cc3)nc2n1-c1cccc(C(C)(C)O)n1 [AZD1775] (max 10 µM) | 0.455 GR | 0.136 GR | -0.416 GR | 0.0997 GR | -0.206 GR | -0.456 GR | -0.0276 GR | -0.186 GR |
| CNC(=O)c1cccc(-c2ccc3c(N4CCOC[C@@H]4C)nc(N4CCOC[C@@H]4C)nc3n2)c1 [AZD2014] (max 10 µM) | 0.697 GR | 0.533 GR | 0.0889 GR | 0.183 GR | -0.0933 GR | 0.089 GR | -0.12 GR | -0.138 GR |
| CO[C@@H](C)Cn1c(=O)n(C)c2cnc3ccc(-c4cncc(C(C)(C)O)c4)cc3c21 (max 10 µM) | 0.804 GR | 0.67 GR | -0.346 GR | 0.108 GR | -0.458 GR | -0.0177 GR | -0.769 GR | -0.473 GR |
| CC(C)Nc1cc(-c2c[nH]c(C(=O)N[C@H](CO)c3cccc(Cl)c3)c2)c(Cl)cn1 [BVD523] (max 10 µM) | 0.0779 GR | 0.266 GR | 0.264 GR | 0.185 GR | 0.156 GR | 0.545 GR | 0.637 GR | 0.533 GR |
| CNCc1ccc(-c2[nH]c3cc(F)cc4c3c2CCNC4=O)cc1 [Rucaparib] (max 10 µM) | 0.114 GR | 0.0455 GR | 0.906 GR | 0.874 GR | 0.789 GR | 0.91 GR | 0.855 GR | 0.642 GR |
| NC1(C(=O)N[C@@H](CCO)c2ccc(Cl)cc2)CCN(c2nc[nH]c3nccc2-3)CC1 [AZD5363] (max 10 µM) | 0.4 GR | 0.214 GR | 0.272 GR | 0.805 GR | -0.124 GR | 0.557 GR | 0.536 GR | -0.529 GR |
| CN(C)C/C=C/C(=O)Nc1ccc(C(=O)Nc2cccc(Nc3cc(-c4c[nH]c5ccccc45)ncn3)c2)cc1 [THZ-P1-2] (max 10 µM) | -0.0028 GR | 0.0927 GR | -0.649 GR | -0.181 GR | -0.626 GR | 0.175 GR | -0.578 GR | -0.513 GR |
| CN1CC[C@H](c2c(O)cc(O)c3c(=O)cc(-c4ccccc4Cl)oc23)[C@H](O)C1 [Flavopiridol] (max 1 µM) | 0.458 GR | 0.316 GR | -0.526 GR | -0.67 GR | -0.13 GR | -0.44 GR | -0.263 GR | -0.303 GR |
